Experimental data reported in ChEMBL document CHEMBL1201862, “PubChem BioAssay data set” (2004).
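48-hour exposure; five concentrations; linearly interpolated endpoints. Here, GI50 denotes the concentration required for 50% inhibition of growth.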 Active and inactive are the calls of the source. No stated cut-off is given here; in the data, active = GI50 up to about 1.1 µM and inactive = higher.

How the values were obtained:
Assay in all cases: growth of human tumour cells (NCI), 48 h
DMS-114 = test system: DMS-114
RXF 631 = test system: RXF 631
SNB-78 = test system: SNB-78
XF498 = test system: XF498
DMS-273 = test system: DMS-273
Hs-578T = test system: Hs-578T
T47D = test system: T47D
MDA-N = test system: MDA-N
MDA-MB-231 = test system: MDA-MB-231

Row | Compound | GI50 (DMS-114) | GI50 (RXF 631) | GI50 (SNB-78) | GI50 (XF498) | GI50 (DMS-273) | GI50 (Hs-578T) | GI50 (T47D) | GI50 (MDA-N) | GI50 (MDA-MB-231)
1 | CN(C)c1ccc(/C=C2\N=C(c3ccc(N)cc3)OC2=O)cc1 | > 100 µM (inactive) | > 100 µM (inactive) | > 100 µM (inactive) | > 100 µM (inactive) | > 100 µM (inactive) |  |  |  | 
2 | C=C1C(=O)OC2CC(C)C3C=CC(=O)C3CC12 (configuration not stated) | 2.44 µM (inactive) | 3.88 µM (inactive) | 3.42 µM (inactive) | 1.63 µM (inactive) | 3.54 µM (inactive) | 1.85 µM (inactive) | 2.34 µM (inactive) | 2.07 µM (inactive) | 1.89 µM (inactive)
3 | CC(=O)NC(Cc1ccsc1)C(=O)O (configuration not stated) | > 100 µM (inactive) |  | > 100 µM (inactive) | > 35.4 µM (inactive) | > 100 µM (inactive) |  |  |  | 
4 | O=S(=O)(SCc1ccccc1)C(c1ccccc1)c1ccccc1 | 19.3 µM (inactive) |  | 30.5 µM (inactive) | 58.1 µM (inactive) | 27.4 µM (inactive) |  |  |  | 
5 | CCOC(=O)NC1C2CC(=O)C(O2)C1OCc1ccccc1 (configuration not stated) | > 100 µM (inactive) | > 100 µM (inactive) | > 100 µM (inactive) | > 100 µM (inactive) | > 100 µM (inactive) |  |  |  | 
6 | Nc1nc(=O)n(CC(O)CO)s1 (configuration not stated) | > 100 µM (inactive) | > 100 µM (inactive) |  |  | > 100 µM (inactive) |  |  |  | 
7 | COC(=O)C(CC(=O)c1ccccc1)c1ccccc1NC(C)=O (configuration not stated) | > 100 µM (inactive) | > 100 µM (inactive) | > 100 µM (inactive) | > 100 µM (inactive) |  |  |  |  | 
8 | CCCC(=O)c1c(NOC2OCC(OC(C)=O)C(OC(C)=O)C2OC(C)=O)nc(OC)n(C)c1=O (configuration not stated) | > 100 µM (inactive) | > 100 µM (inactive) |  | > 100 µM (inactive) | > 100 µM (inactive) |  |  |  | 
9 | O=c1cc(-c2ccccc2)[nH]c2c(Cl)cccc12 | 7.66 µM (inactive) | 51.9 µM (inactive) |  | 26.8 µM (inactive) | 7.11 µM (inactive) |  |  |  | 
10 | COc1ccc(OC)c2c(C(=O)O)c(Cc3ccccc3)ccc12 | > 100 µM (inactive) |  |  | > 100 µM (inactive) | > 100 µM (inactive) |  |  |  | 
11 | COc1ccc(-c2cc(-c3ccccc3)c(C#N)c(=O)n2C2OC(CO)C(O)C(O)C2O)cc1 (configuration not stated) | > 100 µM (inactive) | > 100 µM (inactive) | > 100 µM (inactive) |  | > 100 µM (inactive) |  |  |  | 
12 | Cc1ccc(N(O)C(C)(C)C)cc1 | > 100 µM (inactive) |  |  | > 100 µM (inactive) | > 100 µM (inactive) |  |  |  | 
13 | CCOC(=O)CNC(=O)c1nc[nH]c1/N=N/N(C)C | > 100 µM (inactive) |  |  |  | > 100 µM (inactive) |  |  |  | 
14 | CCN(CC)c1ccc2cc(C(=O)Nc3ccc4[nH]c(C(=O)N5C[C@@H](CCl)c6c5cc(OC(=O)Nc5ccccc5)c5[nH]cc(C)c65)cc4c3)oc2c1 [CARZELESIN] | 0.000201 µM (active) |  | 0.000995 µM (active) |  | 9.33e-05 µM (active) |  |  |  | 
15 | [O-][S+]1c2ccccc2NC(c2ccc3ccccc3c2)CC1c1ccccc1 (configuration not stated) |  |  |  | 19.1 µM (inactive) | 29.5 µM (inactive) |  |  |  | 
16 | CCN(CC)CCC(=O)/C=C/c1ccc(C)cc1 | 11.3 µM (inactive) | 16.4 µM (inactive) | 23.5 µM (inactive) | 12.4 µM (inactive) | 11.2 µM (inactive) |  |  |  | 
17 | COc1ccc(N2C(=O)C3c4[nH]c5ccccc5c4C4CCCCC4C3C2=O)cc1 (configuration not stated) | 8.63 µM (inactive) |  | 2.29 µM (inactive) |  | 6.75 µM (inactive) |  |  |  | 
18 | CC1CC2(S(=O)(=O)c3ccccc3)ON1CC2S(=O)(=O)c1ccccc1 (configuration not stated) | > 100 µM (inactive) | > 100 µM (inactive) |  | > 100 µM (inactive) | > 100 µM (inactive) |  |  |  | 
19 | Cc1cnc(SCCN2CCN(C)CC2)nc1-c1cc2ccccc2s1 | 7.66 µM (inactive) |  | 16.7 µM (inactive) |  | 4.93 µM (inactive) |  |  |  | 
20 | CC1(C)OC2COC3(CNO)OC(C)(C)OC3C2O1 (configuration not stated) | > 100 µM (inactive) |  | > 100 µM (inactive) |  | > 100 µM (inactive) |  |  |  | 

Row | Compound | GI50 (DMS-114) | GI50 (RXF 631) | GI50 (SNB-78) | GI50 (XF498) | GI50 (DMS-273) | GI50 (Hs-578T) | GI50 (T47D) | GI50 (MDA-N) | GI50 (MDA-MB-231)
21 | N#CC(C(=O)CCC(=O)Nc1ccc(Cl)cc1)c1ccccc1Cl (configuration not stated) | > 100 µM (inactive) | > 100 µM (inactive) | > 100 µM (inactive) | > 100 µM (inactive) | > 100 µM (inactive) |  |  |  | 
22 | CC(=O)/C=C/c1c[nH]c(=O)[nH]c1=O | 242 µM (inactive) |  | 159 µM (inactive) | 38.4 µM (inactive) | 89.1 µM (inactive) |  |  |  | 
23 | CC(=O)Nc1ccc(/C=c2\sc3nnc(CCC(=O)Nc4ccccc4Cl)n3c2=O)cc1 | 55.5 µM (inactive) | 32.9 µM (inactive) | 47.3 µM (inactive) | 25.1 µM (inactive) |  |  |  |  | 
24 | CC1=C/C(=C2/N=C(N(C)C)SS2)C(C)=N1.[O-][Cl+3]([O-])([O-])O | > 100 µM (inactive) |  | > 100 µM (inactive) | > 100 µM (inactive) | > 100 µM (inactive) |  |  |  | 
25 | O=C(O)CC(O)(c1ccccc1C(=O)O)c1cccc2ccccc12 (configuration not stated) | > 100 µM (inactive) | > 100 µM (inactive) | > 100 µM (inactive) | > 100 µM (inactive) | > 100 µM (inactive) |  |  |  | 
26 | COc1nc2c(nc(N)n2C2OC(CO)C(O)C(O)C2O)c(=O)[nH]1 (configuration not stated) |  |  | > 100 µM (inactive) | > 100 µM (inactive) |  |  |  |  | 
27 | N=C(N)NS(=O)(=O)c1ccc(Nc2c3ccccc3nc3c(C(=O)N4CCN(CCO)CC4)ccc(Cl)c23)cc1 | > 100 µM (inactive) |  | 30.5 µM (inactive) | > 100 µM (inactive) |  |  |  |  | 
28 | O=C(/C=C/c1ccc(O)c(O)c1)O[C@H]1CCCC[C@@H]1OC(=O)/C=C/c1ccc(O)c(O)c1 |  |  |  |  |  | 29.9 µM (inactive) | 16.2 µM (inactive) | 8.87 µM (inactive) | 20.5 µM (inactive)
29 | CC(C)(C)[Si](OC1CC(n2cnc3c(N)ncnc32)OC1CO)(c1ccccc1)c1ccccc1 (configuration not stated) | 23.7 µM (inactive) |  | > 100 µM (inactive) | 10.4 µM (inactive) | 18.7 µM (inactive) |  |  |  | 
30 | N=C(N)NS(=O)(=O)c1ccc(NC(=O)c2cccn3c(=O)c4ccccc4nc23)cc1 | 40.6 µM (inactive) | 41.4 µM (inactive) | > 100 µM (inactive) | 22.5 µM (inactive) | 32.1 µM (inactive) |  |  |  | 
31 | Nc1ncnc2c1nc(-c1ccccc1)n2C1OC(CO)C(O)C1O (configuration not stated) |  |  |  |  |  | > 100 µM (inactive) | > 100 µM (inactive) | > 100 µM (inactive) | > 100 µM (inactive)
32 | O=[N+]([O-])c1cc2ncc(-c3ccccc3)c(O)c2cc1/C(Cl)=C/c1ccccc1 | 4.88 µM (inactive) |  | 8.73 µM (inactive) | 8.24 µM (inactive) | 5.61 µM (inactive) |  |  |  | 
33 | CCOc1ccccc1NC(=O)CC(C(=O)OC)C(=O)C(=O)OC (configuration not stated) | > 100 µM (inactive) | > 100 µM (inactive) | > 100 µM (inactive) |  | > 100 µM (inactive) |  |  |  | 
34 | COc1ccc2nc(C(=O)c3ccccc3)c(C)cc2c1 | 3.22 µM (inactive) | 8.18 µM (inactive) | 13.2 µM (inactive) | 3.68 µM (inactive) | 3.08 µM (inactive) |  |  |  | 
35 | CCCCCCCCCCCCOC(=S)NC | 20.8 µM (inactive) |  | 27.8 µM (inactive) | 20 µM (inactive) | 19.5 µM (inactive) |  |  |  | 
36 | CC(=O)NNc1nc(C)c(C(=O)NNC(=O)C(=O)Nc2nc3ccc([N+](=O)[O-])cc3s2)s1 | 24.4 µM (inactive) | 41.6 µM (inactive) | 69.5 µM (inactive) | 25 µM (inactive) | 62.4 µM (inactive) | 51.6 µM (inactive) | 22.6 µM (inactive) | 45.9 µM (inactive) | 18.7 µM (inactive)
37 | Cc1nc(C(N)=S)sc1C(=O)CC(=O)C(=O)Nc1ccc(Br)cc1 |  |  |  |  |  | > 100 µM (inactive) | > 100 µM (inactive) | > 100 µM (inactive) | > 100 µM (inactive)
38 | N#CC(C#N)=Cc1c[nH]c(=O)[nH]c1=O |  |  |  |  |  | > 100 µM (inactive) | > 100 µM (inactive) | > 100 µM (inactive) | > 100 µM (inactive)
39 | C=CCOCCCC(=O)C(=[N+]=[N-])C(=O)OC |  | > 100 µM (inactive) | > 100 µM (inactive) | > 100 µM (inactive) |  |  |  |  | 
40 | CS(=O)(=O)OCCCCOS(=O)(=O)CF |  |  |  |  |  | > 100 µM (inactive) | > 100 µM (inactive) | > 100 µM (inactive) | > 100 µM (inactive)
